Laboratory results from US9096543B2, “Nuclear transport modulators and uses thereof” (Karyopharm Therapeutics Inc., priority 2012, dated 2015).
Entries after “also recorded” stand apart in the source; their conditions may differ.

Tests used:
[1] = target: T1, CRM1 (Homo sapiens, UniProt O14980); assay: RevGFP assay: inhibition of CRM1 mediated nuclear export; type: cell-based; conditions: U2OS-RevGFP cells, ~1 hr with compound; read-out: Rev Export [IC50]
T1 construct: endogenous in cells; host or cells: U2OS-RevGFP cells
T1 sequence (O14980 whole entry): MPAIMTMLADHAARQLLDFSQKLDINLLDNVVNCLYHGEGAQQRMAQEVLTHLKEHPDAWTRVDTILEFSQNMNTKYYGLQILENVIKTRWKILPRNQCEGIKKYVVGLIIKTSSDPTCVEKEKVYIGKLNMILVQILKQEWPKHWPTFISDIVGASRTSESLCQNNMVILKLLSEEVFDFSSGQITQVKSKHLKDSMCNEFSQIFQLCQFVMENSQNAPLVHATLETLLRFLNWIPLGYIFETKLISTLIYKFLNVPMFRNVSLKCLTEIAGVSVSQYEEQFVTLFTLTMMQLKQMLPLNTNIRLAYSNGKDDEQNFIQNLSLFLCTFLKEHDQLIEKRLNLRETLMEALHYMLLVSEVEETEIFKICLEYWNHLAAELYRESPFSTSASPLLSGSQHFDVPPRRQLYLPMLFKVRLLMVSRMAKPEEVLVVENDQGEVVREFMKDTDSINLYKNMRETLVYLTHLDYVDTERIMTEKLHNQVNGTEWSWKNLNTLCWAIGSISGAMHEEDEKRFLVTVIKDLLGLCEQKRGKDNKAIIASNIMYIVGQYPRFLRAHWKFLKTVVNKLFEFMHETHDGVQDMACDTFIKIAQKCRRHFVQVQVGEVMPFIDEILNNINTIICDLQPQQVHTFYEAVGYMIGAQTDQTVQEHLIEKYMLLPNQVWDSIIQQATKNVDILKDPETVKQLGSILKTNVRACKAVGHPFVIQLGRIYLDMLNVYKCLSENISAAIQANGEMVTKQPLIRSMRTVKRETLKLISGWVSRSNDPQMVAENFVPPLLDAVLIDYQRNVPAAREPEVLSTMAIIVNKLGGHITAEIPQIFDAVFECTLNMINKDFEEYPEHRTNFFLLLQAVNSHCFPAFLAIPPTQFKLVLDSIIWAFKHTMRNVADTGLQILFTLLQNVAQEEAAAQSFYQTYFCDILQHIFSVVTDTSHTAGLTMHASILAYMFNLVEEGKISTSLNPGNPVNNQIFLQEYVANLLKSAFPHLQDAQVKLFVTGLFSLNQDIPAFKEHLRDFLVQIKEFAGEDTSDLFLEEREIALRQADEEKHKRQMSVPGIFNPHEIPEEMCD
Method: The inhibition of CRM1 mediated nuclear export by compounds of the invention was determined. The inhibitory activity of compounds for the CRM1 protein was determined in the RevGFP assay.
Experimental protocol: Rev is a protein from human immunodeficiency virus type 1 (HIV-1) and contains a nuclear export signal (NES) in its C-terminal domain and a nuclear localization signal (NLS) in its N-terminal domain. Nuclear export of Rev protein is dependent on the classical NES/CRM1 pathway (Neville et al, 1997, Kau et al, 2003). Nuclear accumulation of Rev is observed in cells treated with specific inhibitors of CRM1, such as LMB (Kau et al, 2003). In this assay, U2OS-RevGFP cells are seeded onto clear-bottom, black, 384-well plates the day before the experiment. Compounds are serially diluted 1:2 starting from 40 μM in a separate 384-well plate in DMEM, and then transferred onto cells. Cells are incubated with compound for ˜1 hr before fixation with 3.7% formaldehyde and nuclei staining with Hoechst 33258. The amount of GFP in cell nuclei was measured and compound IC50s were determined (Kau et al, 2003).

[2] = test system: PMA-induced psoriasis; assay: PMA-induced psoriasis in female BALB/c mice; type: in vivo; conditions: topical
Method: Twenty-four (24) female BALB/c mice, aged 6 to 8 weeks with a body weight between 22 and 30 g were used. The mice were randomized into […]. The grouping of animals was as follows: Group I (Naïve; ethanol), Group II (PMA; ethanol), Group III (PMA; Compound 210 μM) and Group IV (PMA; betamethasone). Twenty (20)μL of PMA (4 μg/20 μL of acetone) was applied topically on the upper surface of pinna of ear of all animals in Group II to Group IV. PMA was applied daily on left ear and on alternate days (M-W-F) on right ear from Day 1 to Day 9. Thirty (30) minutes after application of PMA, vehicle or standard compound (betamethasone) or Compound 2 was applied topically to the ears of animals from different groups. […] Animals were observed daily for a period of 12 days for any treatment related symptoms. Basal ear thickness was recorded in all animals (before application of PMA) using digital screw gauge at time T0 (Day 1). […] Commercially available 100% DMSO (LR Grade) and ethanol (LR Grade) were used to prepare the formulations. PMA was prepared by dissolving 10 mg of PMA in 50.0 mL of acetone. Compound 2 was prepared by dissolving 1.47 mg of Compound 2 in 300 μL of 100% DMSO.

[3] = test system: collagen-induced arthritis; assay: Collagen-induced arthritis (CIA) in Lewis rats; type: in vivo
Method: Forty (40) female Lewis rats (BK), aged 6 to 8 weeks with a pre-treatment body weight range of 180 to 200 g were divided randomly into four (4) groups (Groups A-D) of ten (10) rats each. The rats in Groups B to D were immunized intradermally with bovine CII in IFA at three sites near the base of the tail and over the back with 500 μl, of the emulsion on day 0 (200 μL, 200 μL, 100 μL for each site). On day 7, the rats in Groups B-D were given booster injections with the same amount of the emulsion intradermally near the former injection sites. […] Rats were weighed daily and a drug holiday was given to an animal when a weight loss of greater than 13%. CIA development was evaluated via macroscopic scoring and measurements of paw swelling. […] Foot volume was measured by plethysmometry on the same day of the arthritic measurement throughout the study period. The cubage of each hind paw and swelling rate were measured and using the following equation: Swelling Rate=(CN−C0)/C0×100%. […] The clinical scores were summed for each animal, and the total average of all animals in each group was expressed as the mean arthritic score. […] Prepared sections of hind paws were subjected to hematoxylin and eosin (H&E) staining.

[4] = test system: CCI brain injury; assay: Brain injury assessment after CCI (visual inspection, NeuN cell density, immunofluorescence); type: in vivo, rats; conditions: for cell-to-gray matter (CG) area coefficient, compared to sham: NeuN labeling
Method: Quantitative measures of cell density were collected from anti-NeuN immunolabeled subsections from approximately 2-3 mm anterior to bregma. Regions of interest (ROIs) were drawn (blind to experimental condition) around Layers IV-VI in the cortical region adjacent to the injury site in CCI-treated animals or in the equivalent zone (dorsal cortex) in sham animals. An ROI of similar area was also evaluated in a ventral cortical region of the same section. Cell identification was performed using the cell counting module of Keyence BZ-II Analyzer software. […] The CCI-induced reduction in CG coefficient was mitigated by treatment with Compound 1 in the ventral cortex (−3% compared to sham; p=0.09). Although the effect of Compound 1 versus vehicle treatment in the ventral cortex is not statistically significant, it is anticipated that this effect would breach statistical significance in a larger study. No effect of Compound 1 was detected in the dorsal cortical region (−32% compared to sham) immediately adjacent to the injury site. The difference in the observed effect of Compound 1 on the ventral region versus the dorsal region may be a threshold effect related to the degree of injury, which was inversely related to the distance from the injury site. Thus, the damage to the dorsal cortical region could be too severe to be rescued by Compound 1 under these conditions.
Immunofluorescence was performed to evaluate the impact of TBI on several pathways of immune response, and to determine if Compound 1 might be mediating its neuroprotective effects via one or more of those pathways. Semi-quantitative measures of secondary injury responses were examined using immunofluorescent labeling for anti-Rat IgG (an indicator of blood-brain barrier (BBB) permeability), and TNFα (an indicator of neural inflammation). All markers were imaged at 20× magnification in the areas of the cortex surrounding the injury site in adjacent subsections within 300 μm to those used for the NeuN labeling assessments. For each label, a target ROI was outlined within Layers IV-VI adjacent to the injury site (or an equivalent region of dorsal cortex for sham animals), and a reference ROI was collected from the same laminae in ventral cortex. Normalized fluorescence intensity was assessed in each of the two ROIs. For all labels, the ventral cortex reference site was determined not to be different between groups (p>0.5); therefore, the percent target to reference value (IF) was determined.

SMILES | IC50 [1] [µM] | anti-psoriatic activity [2] | PMA-induced increases in ear thickness and disease activity index (DAI) ([2]; 10 μM daily, prominent Days 6-8, diminished Day 10 and beyond) | therapeutic efficacy (Clinical Scores, Joint Swelling, histological examination) ([3]; 4 mg/kg (MPK) PO QoD from onset to day 28) | histopathological analysis of hind paws (H&E) ([3]; day 28, 4 mg/kg PO QoD from onset) | qualitative visual inspection of whole brains (damage to dorsal-medial cortical tissue) ([4]; CCI + Compound 1 6 mg/kg) | cell-to-gray matter (CG) area coefficient, compared to sham ([4]; dorsal cortical region adjacent to injury site, CCI control −45%) [%] | secondary injury responses (TNFα immunopositive cells, anti-Rat IgG immunofluorescence) ([4]; tissue surrounding the injury site) | cell-to-gray matter (CG) area coefficient, compared to sham ([4]; ventral cortex, p=0.09 vs vehicle, CCI control −30%) [%]
O=C(/C=C\n1cnc(-c2cc(C(F)(F)F)cc(C(F)(F)F)c2)n1)NNC(=O)CN1CCOCC1 [Compound 2, (Z)-3-(3-(3,5-bis(trifluoromethyl)phenyl)-1H-1,2,4-triazol-1-yl)-N′-(2-morpholinoacetyl)acrylohydrazide] | < 1 | statistically significant anti-psoriatic activity | prominent reduction in PMA-induced increases in (i) left and right ear thickness, and (ii) left and right ear DAI | showed the therapeutic efficacy | relatively intact cartilage was found on the joint surface and pannus formation was minimal |  |  |  | 
CC(C)(C)C(=O)NNC(=O)/C=C\n1cnc(-c2cc(C(F)(F)F)cc(C(F)(F)F)c2)n1 [Compound 1, (Z)-3-(3-(3,5-bis(trifluoromethyl)phenyl)-1H-1,2,4-triazol-1-yl)-N′-pivaloylacrylohydrazide] |  |  |  |  |  | damage ranging from moderate to minimal | −32 | largely absent; also recorded: reduces secondary injury responses | −3
